Results published in patent US8110681B2, “Compounds for the treatment of spinal muscular atrophy and other uses” (The United States of America as represented by the …, priority 2006, dated 2012).
Values joined by “and” are separate entries in the source; they are usually repeats but may differ in a detail not shown here. Equal entries are not always repeated. Where two headings read alike, the source gives them in different places.

Experiments:
[1] = system: luciferase reporter containing the UAG stop codon; assay: Translational read-through luciferase reporter assay, UAG stop codon; format: cell-based; settings: read-out: MaxFold Increase
Description: This assay is described in detail in WO 01/44516 A2. This is a cell-based luciferase reporter assay designed to detect translational read-through via insertion of a translational stop codon within the luciferase coding sequence. In the presence of compounds that promote read-through of translational stop codons, active luciferase is produced and detected via chemiluminescence. We have shown that indoprofen analogs are active in two versions of this assay—one containing a UGA stop codon and one containing a UAG stop codon. The data in the table is from the luciferase reporter containing the UAG stop codon. This is the first stop codon downstream of the improper splice junction between exons 6 and 8 in the human SMN2 transcript.

[2] = system: human GLT-1/EAAT-2 promoter; assay: GLT-1/EAAT-2 promoter luciferase reporter assay in COS-7 cells; format: cell-based; settings: COS-7 pE2P-GL3 (clone 4), 48 h; for maximal fold induction: Homo sapiens, normalized to DMSO control, read-out: Max Fold-Induction
Description: The astroglial glutamate transporter, GLT-1/EAAT-2, is responsible for the majority of glutamate transport in the brain and spinal cord. […] Results from each plate were normalized to the DMSO treated control wells and expressed as fold-induction. EC50 values were calculated using GraphPad Prism software.

[3] = system: SMN2-linked luciferase-reporter gene construct; assay: SMN splice reporter assay (SMN2-linked luciferase reporter, Example 10); format: cell-based; settings: for maximal fold induction: read-out: SMN Splice Reporter Assay (Example 10) Avg MaxFold Increase
How it was run: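 Cervical carcinoma cells stably carrying an SMN2–luciferase splice reporter, in which luciferase is in frame only when SMN2 exon 7 is included, were treated with compound. Luciferase activity was read and expressed as fold increase over untreated transformed cells.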

[4] = system: SMN-containing gems in fibroblast cells from a type 1 SMA patient (3813 cells); assay: Gem count by immunohistochemistry in type 1 SMA patient fibroblasts (3813 cells); format: cell-based, human; settings: for Number of gems per 100 nuclei, Treated Cells: 48 hours
Description: SMN protein can be found in punctate nuclear particles called “gems” (Liu and Dreyfuss, EMBO J. 15(14): 3555-3565 (1996)). In fibroblast cells derived from SMA patients, the number of gems corresponds to disease severity as follows: severe type 1 patients have approximately 5 gems per 100 nuclei; mild type 3 patients have 20-50 gems per 100 nuclei; normal individuals have approximately 100-150 gems per 100 nuclei (Coovert et al., Hum Mol Genet 6(8): 1205-1214 (1997), Young et al., Exp Cell Res 265(2): 252-261 (2001)).
Following these methods, fibroblast cells from a type 1 SMA patient (3813 cells, Coriell Cell Repositories) were treated for 48 hours with the compounds indicated in Table 2 (reference number—structure correlation is provided in Table 1). The cells were then fixed and incubated with a monoclonal antibody against SMN (4B7, Wolstencroft et al., Hum Mol Genet 14:1199-1210 (2005)). A FITC-conjugated anti-mouse secondary antibody was used to visualize the labeled gems.

[5] = Plasma and brain pharmacokinetics in mice; format: in vivo, FVB or CD-1 mice; settings: single dose; for Kp / half-life / AUC: mouse; for Kp: brain and plasma, read-out: Brain/Plasma Ratio
Description: Compounds were formulated in solution using the method of cosolvency as described by Lee et al., Int. J. Pharmaceutics, 253: 111-119 (2003). FVB or CD-1 mice, approximately 5 weeks old, were given a single dose of compound at the indicated concentration. Compounds were administered orally, with the exception of ALB-116638 and ALB-117573, which were administered IV. Three to five mice were euthanized at various times between 15 minutes and 24 hours after dosing and brain and plasma were harvested. Tissues were homogenized in acetonitrile and analyzed on an API 4000 LC/MS/MS system coupled with an Agilent 1100 series liquid chromatograph. All pharmacokinetic analyses were conducted using WinNonlin (Version 4.01; Pharsight, Palo Alto, Calif.) with the exception of brain/plasma ratios, which were calculated using Microsoft Excel 2000. AUC values are the area under the concentration-time curve from time zero to the last measured time point. The half life values are extrapolated from 3-4 time points taken at less than 4 hours after dosing.

SMN = assay: Western blot of SMN in SMA type I fibroblasts (3813 cells); format: cell-based, human; settings: 320 uM, 48 hours, positive control; DMSO = 1
Description: Westerns blots were performed using the methods of Mattis et al., Hum Genet 120:589-601(2006)). SMA type I fibroblasts (3813 cells; Coriell Cell Repositories) were treated with compounds for 48 hours. Monoclonal anti-SMN antibody 4B7 (Wolstencroft et al., Hum Mol Genet 14:1199-1210 (2005)) was used to identify SMN. Actin was used as an internal normalization standard and detected with an anti-actin polyclonal rabbit antibody (Sigma-Aldrich). Tobramycin was used for the positive control compound treatment. DMSO is the untreated negative control. Values are presented as the ratio of the signals obtained for SMN and Actin.

[6] = SMN2-linked luciferase reporter, average
[7] = maximum fold increase of reporter signal, average
[8] = brain, 5 mg/kg, oral, read-out: Brain T½ (converted)
[9] = plasma, 5 mg/kg, oral, read-out: Plasma T½ (converted)
[10] = SMN2-linked luciferase reporter, average maximum fold increase
[11] = brain, 5 mg/kg, IV, read-out: Brain T½ (converted)

EC50 [3, 6] [nM]	Structure (SMILES)	maximal fold induction [1]	maximal fold induction [3, 7]	other results
6720	CC(C(N)=O)c1ccc(N2Cc3ccccc3C2=O)cc1 (centres unmarked) [ALB-112171]	2.2	1.34	EC50 [2]: 460 nM; maximal fold induction [2]: 1.9
801	COc1ccc2c(c1)C(=O)N(c1ccc(C(C)C(=O)OC(C)(C)C)cc1)C2 (centres unmarked) [ALB-112354]	2	1.46	EC50 [2]: 221 nM; maximal fold induction [2]: 1.93
83	COc1ccc2c(c1)C(=O)N(c1ccc(C(C)C(=O)O)cc1)C2 (centres unmarked) [ALB-112355]	2.7	1.85	Number of gems per 100 nuclei, Treated Cells ([4]; 0.45 μM): 5.3 gems per 100 nuclei; Brain AUC ([5]; 5 mg/kg, oral): 570.0 ng·h/g; Kp ([5]; 5 mg/kg, oral): 0.03; half-life [5, 8]: 2.6 h; AUC ([5]; plasma, 5 mg/kg, oral): 21100 ng·h/mL; half-life [5, 9]: 7.6 h
159	Br.COCC(C)c1ccc(N2Cc3ccc(C)cc3C2=O)cc1 (centres unmarked) [ALB-113967]	2.6	1.54	Brain AUC ([5]; 5 mg/kg, oral): 170.5 ng·h/g; Kp ([5]; 5 mg/kg, oral): 0.29; half-life [5, 8]: 1.1 h; AUC ([5]; plasma, 5 mg/kg, oral): 595 ng·h/mL; half-life [5, 9]: 1.5 h
6030	CC(CN(C)C)c1ccc(N2Cc3ccccc3C2=O)cc1 (centres unmarked) [ALB-113968]		1.37	EC50 [2]: 1270 nM; maximal fold induction [2]: 1.78
324	COc1ccc2c(c1)C(=O)N(c1ccc(C(C)(C)C)cc1)C2 [ALB-115210]	2.9	1.47	Brain AUC ([5]; 5 mg/kg, oral): 553.8 ng·h/g; Brain AUC ([5]; 25 mg/kg, oral): 5950.9 ng·h/g; Kp ([5]; 5 mg/kg, oral): 51.7; Kp ([5]; 25 mg/kg, oral): 15; half-life [5, 8]: 0.6 h; half-life ([5]; brain, 25 mg/kg, oral, read-out: Brain T½ (converted)): 2.9 h; AUC ([5]; plasma, 5 mg/kg, oral): 10.7 ng·h/mL; half-life [5, 9]: 9.4 h; AUC ([5]; plasma, 25 mg/kg, oral): 397 ng·h/mL; half-life ([5]; plasma, 25 mg/kg, oral, read-out: Plasma T½ (converted)): 1.1 h
203	CC(C)c1ccc(N2Cc3cc4c(cc3C2=O)OCCO4)cc1 [ALB-115498]		1.83	Number of gems per 100 nuclei, Treated Cells ([4]; 1 μM): 14.3 gems per 100 nuclei; maximal fold induction [2]: 0.86; Brain AUC ([5]; 5 mg/kg, oral): 163.8 ng·h/g; Kp ([5]; 5 mg/kg, oral): 3.43; half-life [5, 8]: 0.5 h; AUC ([5]; plasma, 5 mg/kg, oral): 47.8 ng·h/mL; half-life [5, 9]: 0.6 h
97	Cc1ccc2c(c1)C(=O)N(c1ccc(C(C)C)cc1)C2 [ALB-115586]	2.3	1.32	
41	CC(C)c1ccc(N2Cc3ccc(N(C)C)cc3C2=O)cc1 [ALB-115806]	2	1.47	Number of gems per 100 nuclei, Treated Cells ([4]; 0.4 μM): 8 gems per 100 nuclei; maximal fold induction [2]: 0.87
163	Cc1cccc2c1C(=O)N(c1ccc(C(C)C)cc1)C2 [ALB-115812]	3	1.35	
30	Cc1ccc2c(c1)CN(c1ccc(C(C)C)cc1)C2=O [ALB-115948]	2.8	1.42	
310	CCOc1ccc2c(c1)C(=O)N(c1ccc(C(C)C)cc1)C2 [ALB-116074]	2.9	1.51	
267	CC(C)c1ccc(N2Cc3ccc(O)cc3C2=O)cc1 [ALB-116078]	3.3		maximal fold induction [3, 10]: 1.64
599	CC(C)c1ccc(N2Cc3ccc(OC(F)F)cc3C2=O)cc1 [ALB-116244]	2.8		Number of gems per 100 nuclei, Treated Cells ([4]; 0.1 μM): 44 gems per 100 nuclei; maximal fold induction [3, 10]: 1.57
31	CC(C)c1ccc(N2Cc3ccc(Cl)cc3C2=O)cc1 [ALB-116246]	2.7	1.35	
50	CN(C)Cc1ccc(N2Cc3ccccc3C2=O)cc1 [ALB-116255]		1.09	maximal fold induction [2]: 1.2
3560	COCC(C)c1ccc(N2Cc3cc4c(cc3C2=O)OCCO4)cc1 (centres unmarked) [ALB-116361]		1.9	EC50 [2]: 6.79 nM; maximal fold induction [2]: 1.54
123	CC(C)c1ccc(N2Cc3cc4c(cc3C2=O)OCO4)cc1 [ALB-116362]	2.3		maximal fold induction [3, 10]: 1.52
757	CC(C)c1ccc(N2Cc3ccc(NS(C)(=O)=O)cc3C2=O)cc1 [ALB-116486]	2.4		maximal fold induction [2]: 1.17; maximal fold induction [3, 10]: 1.49
166	CC(C)c1ccc(N2Cc3ccc(N(C)S(C)(=O)=O)cc3C2=O)cc1 [ALB-116638]			maximal fold induction [3, 10]: 1.51; Brain AUC ([5]; 5 mg/kg, IV): 537.2 ng·h/g; half-life [5, 11]: 7.3 h
81	CC(C)c1ccc(N2Cc3cc(Cl)ccc3C2=O)cc1 [ALB-116932]	2.4	1.45	
78	COCc1ccc2c(c1)C(=O)N(c1ccc(C(C)C)cc1)C2 [ALB-116935]	1.9	1.52	Brain AUC ([5]; 5 mg/kg, oral): 338.1 ng·h/g; half-life [5, 8]: 9.4 h
90	CNc1ccc2c(c1)C(=O)N(c1ccc(C(C)C)cc1)C2 [ALB-117046]	2.9	1.44	
2910	CCCC(C)c1ccc(N2Cc3ccc(OC)cc3C2=O)cc1 (centres unmarked) [ALB-117451]	2.1	1.74	
289	CC(C)(C)c1ccc(N2Cc3cc4c(cc3C2=O)OCCO4)cc1 [ALB-117452]	2.2		maximal fold induction [3, 10]: 1.4
470	CC(C)c1ccc(N2Cc3cccc(Cl)c3C2=O)cc1 [ALB-117454]	3.1	1.51	
345	CC(C)c1ccc(N2Cc3ccc(NC(N)=O)cc3C2=O)cc1 [ALB-117573]	4.4		maximal fold induction [3, 10]: 1.67; Brain AUC ([5]; 5 mg/kg, IV): 64.5 ng·h/g; half-life [5, 11]: 7.4 h
1100	CC(C)c1ccc(N2Cc3ccc(C(F)(F)F)cc3C2=O)cc1 [ALB-117902]	2	1.57	
	CCCC(CCC)C(=O)O [Positive Control, valproic acid, reference compound]			Number of gems per 100 nuclei, Positive Control ([4]; 1000 μM valproic acid, same patient fibroblasts): 31 gems per 100 nuclei and 38.7 gems per 100 nuclei
	NC[C@H]1O[C@H](O[C@H]2[C@H](O)[C@@H](O[C@H]3O[C@H](CO)[C@@H](O)[C@H](N)[C@H]3O)[C@H](N)C[C@@H]2N)[C@H](N)C[C@@H]1O [Tobramycin, reference compound]			SMN:Actin Ratio (SMN): 1.5
